Experimental data from PubChem BioAssay (NCI).
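Five concentrations, 48 hours, 96-well plates. TGI denotes the concentration required for complete inhibition of growth.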 Active and inactive are the calls of the source. No stated cut-off is given here; in the data, active means GI50 below about 0.43 µM; inactive means the rest.

Columns and labels:
Assay in all cases: NCI-60 cell line screen, 48 h
[1] = test system: NCI/ADR-RES ovarian
[2] = test system: TK-10 renal
[3] = test system: NCI-H226 lung
[4] = test system: SF-295 CNS
[5] = test system: SK-MEL-5 melanoma
[6] = test system: NCI-H23 lung
[7] = test system: SK-MEL-28 melanoma
[8] = test system: COLO 205 colon
[9] = test system: OVCAR-8 ovarian
[10] = test system: SNB-19 CNS
[11] = test system: UO-31 renal
[12] = test system: ACHN renal
[13] = test system: HS 578T breast
[14] = test system: UACC-257 melanoma
[15] = test system: MCF7 breast
[16] = test system: UACC-62 melanoma
[17] = test system: KM12 colon
[18] = test system: SN12C renal
[19] = test system: OVCAR-5 ovarian
[20] = test system: MDA-MB-435
[21] = test system: CAKI-1 renal
[22] = test system: SF-539 CNS
[23] = test system: K-562 leukemia
[24] = test system: 786-0 renal
[25] = test system: SNB-75 CNS
[26] = test system: T-47D breast
[27] = test system: MDA-N
[28] = test system: MDA-MB-231 breast
[29] = test system: RXF 393 renal
[30] = test system: M14 melanoma
[31] = test system: NCI-H522 lung
[32] = test system: SF-268 CNS
[33] = test system: LOX IMVI melanoma
[34] = test system: OVCAR-3 ovarian
[35] = test system: U251 CNS
[36] = test system: HOP-62 NSCLC
[37] = test system: OVCAR-4 ovarian
[38] = test system: HT29 colon
[39] = test system: CCRF-CEM leukemia
[40] = test system: EKVX NSCLC
[41] = test system: A498 renal
[42] = test system: SK-MEL-2 melanoma
[43] = test system: NCI-H460 lung
[44] = test system: HCC-2998 colon
[45] = test system: SW-620 colon
[46] = test system: MALME-3M melanoma
[47] = test system: PC-3 prostate
[48] = test system: DU-145 prostate
[49] = test system: HOP-92 NSCLC
[50] = test system: HL-60(TB) leukemia
[51] = test system: HCT-116 colon
[52] = test system: HCT-15 colon
[53] = test system: MOLT-4 leukemia
[54] = test system: RPMI-8226 leukemia
[55] = test system: BT-549 breast
[56] = test system: SR leukemia
[57] = test system: A549 NSCLC
[58] = test system: SK-OV-3 ovarian
[59] = test system: IGROV1 ovarian

Work on `O=C(c1ccc(Cl)c(Cl)c1)N(Cc1cccnc1)C(=S)N(Cc1cccnc1)C(=O)c1ccc(Cl)c(Cl)c1` yielded a TGI [1] of over 100 µM, a TGI [2] of 79.8 µM and a TGI [3] of over 100 µM. For the same molecule, the TGI [4] was 67.1 µM, the TGI [5] was 75.7 µM and the TGI [6] was over 100 µM. The TGI [7] was over 100 µM, the TGI [8] was 32.2 µM and the TGI [9] was 84.5 µM. The TGI [10] was 88.4 µM, the TGI [11] was 33.2 µM and the TGI [12] was 36.2 µM. For the same molecule, the TGI [13] was over 100 µM, the TGI [14] was 91.5 µM and the TGI [15] was over 100 µM. For the same molecule, the TGI [16] was over 100 µM, the TGI [17] was over 100 µM and the TGI [18] was 52.2 µM. For the same molecule, the TGI [19] was 71.7 µM, the TGI [20] was over 100 µM and the TGI [21] was over 100 µM. It also gave a TGI [22] of 45.5 µM, a TGI [23] of over 100 µM and a TGI [24] of 54.2 µM. It also gave a TGI [25] of over 100 µM, a TGI [26] of over 100 µM and a TGI [27] of over 100 µM. It also gave a TGI [28] of 99.1 µM, a TGI [29] of 79.6 µM and a TGI [30] of 52.9 µM. It also gave a TGI [31] of 41.9 µM, a TGI [32] of over 100 µM and a TGI [33] of over 100 µM. The TGI [34] was 78.3 µM, the TGI [35] was over 100 µM and the TGI [36] was 83.6 µM. The TGI [37] was over 100 µM, the TGI [38] was 65.1 µM and the TGI [39] was over 100 µM. The TGI [40] was over 100 µM, the TGI [41] was 79.4 µM and the TGI [42] was 95.7 µM. It also gave a TGI [43] of over 100 µM, a TGI [44] of 39.8 µM and a TGI [45] of over 100 µM. It also gave a TGI [46] of over 100 µM, a TGI [47] of 83.4 µM and a TGI [48] of over 100 µM. The TGI [49] was over 100 µM, the TGI [50] was over 100 µM and the TGI [51] was 63.4 µM. The TGI [52] was 64.2 µM, the TGI [53] was over 100 µM and the TGI [54] was over 100 µM. The TGI [55] was 65.8 µM, the TGI [56] was over 100 µM and the TGI [57] was over 100 µM. For the same molecule, the TGI [58] was over 100 µM.
`CC(C)=CCC/C(C)=C/CC/C(C)=C/CCN(C)CCO` showed a TGI [1] of 26.7 µM, a TGI [2] of 19.4 µM and a TGI [3] of 38.7 µM. For the same molecule, the TGI [4] was 12.1 µM, the TGI [5] was 3.44 µM and the TGI [6] was 27.6 µM. It also gave a TGI [7] of 25.1 µM, a TGI [8] of 3.25 µM and a TGI [9] of 27.3 µM. For the same molecule, the TGI [10] was 22.8 µM, the TGI [11] was 25.3 µM and the TGI [12] was 23.9 µM. It also gave a TGI [13] of 6.57 µM, a TGI [14] of 21.7 µM and a TGI [15] of 7.13 µM. The TGI [16] was 27.1 µM, the TGI [17] was 7.77 µM and the TGI [18] was 25.5 µM. The TGI [19] was 21.1 µM, the TGI [20] was 17.4 µM and the TGI [21] was 19.2 µM. For the same molecule, the TGI [22] was 14.8 µM, the TGI [23] was 3.24 µM and the TGI [24] was 4.83 µM. For the same molecule, the TGI [25] was 21 µM, the TGI [26] was 7.4 µM and the TGI [27] was 14.3 µM. It also gave a TGI [28] of 23.9 µM, a TGI [29] of 24.9 µM and a TGI [30] of 3.81 µM. The TGI [31] was 16.5 µM, the TGI [32] was 27 µM and the TGI [33] was 14.3 µM. For the same molecule, the TGI [34] was 28.9 µM, the TGI [35] was 12.7 µM and the TGI [36] was 19.6 µM. For the same molecule, the TGI [37] was 29.1 µM, the TGI [38] was 23.3 µM and the TGI [39] was 8.65 µM. For the same molecule, the TGI [40] was 32.3 µM, the TGI [41] was 29.3 µM and the TGI [42] was 28.1 µM. The TGI [43] was 14.5 µM, the TGI [44] was 4.38 µM and the TGI [45] was 18.4 µM. For the same molecule, the TGI [46] was 8.33 µM, the TGI [47] was 18.2 µM and the TGI [48] was 25.9 µM. The TGI [49] was 9.9 µM, the TGI [50] was 3.68 µM and the TGI [51] was 16.3 µM. The TGI [52] was 13.7 µM, the TGI [53] was 11.1 µM and the TGI [54] was 11 µM. The TGI [55] was 26.3 µM, the TGI [56] was 21.4 µM and the TGI [57] was 23.3 µM. For the same molecule, the TGI [59] was 8.34 µM and the TGI [58] was 29.6 µM.
In the case of `O=c1cc(-c2ccc(O)c(O)c2-c2c(O)cc3oc(-c4ccc(O)c(O)c4)cc(=O)c3c2O)oc2cc(O)cc(O)c12`, the outcome [1] is reported as “inactive”, the outcome [2] is reported as “inactive” and the outcome [3] is reported as “inactive”. The outcome [4] was “inactive”, the outcome [5] was “inactive” and the outcome [6] was “inactive”. The outcome [7] was “inactive”, the outcome [8] was “inactive” and the outcome [9] was “inactive”. For the same molecule, the outcome [10] was “inactive”, the outcome [11] was “inactive” and the outcome [12] was “inactive”. The outcome [13] was “inactive”, the outcome [14] was “inactive” and the outcome [15] was “inactive”. The outcome [16] was “inactive”, the outcome [17] was “inactive” and the outcome [18] was “inactive”. The outcome [19] was “inactive”, the outcome [20] was “inactive” and the outcome [21] was “inactive”. For the same molecule, the outcome [22] was “inactive”, the outcome [23] was “inactive” and the outcome [24] was “inactive”. The outcome [25] was “inactive”, the outcome [26] was “inactive” and the outcome [27] was “inactive”. For the same molecule, the outcome [28] was “inactive”, the outcome [29] was “inactive” and the outcome [30] was “inactive”. The outcome [31] was “inactive”, the outcome [32] was “inactive” and the outcome [33] was “inactive”. The outcome [34] was “inactive”, the outcome [35] was “inactive” and the outcome [36] was “inactive”. The outcome [37] was “inactive”, the outcome [38] was “inactive” and the outcome [39] was “inactive”. For the same molecule, the outcome [40] was “inactive”, the outcome [41] was “inactive” and the outcome [42] was “inactive”. The outcome [44] was “inactive”, the outcome [45] was “inactive” and the outcome [46] was “inactive”. The outcome [47] was “inactive”, the outcome [48] was “inactive” and the outcome [49] was “inactive”. For the same molecule, the outcome [50] was “inactive”, the outcome [51] was “inactive” and the outcome [52] was “inactive”. The outcome [54] was “inactive”, the outcome [55] was “inactive” and the outcome [56] was “inactive”. The outcome [57] was “inactive”, the outcome [59] was “inactive” and the outcome [58] was “inactive”.
`COc1ccc(N2C(=O)CC(=O)N(C(=O)CCCCCCCCC(=O)N3C(=O)CC(=O)N(c4ccc(OC)cc4)C3=S)C2=S)cc1` showed a TGI [1] of over 100 µM, a TGI [2] of over 100 µM and a TGI [3] of over 100 µM. For the same molecule, the TGI [4] was over 100 µM, the TGI [5] was over 100 µM and the TGI [6] was over 100 µM. The TGI [7] was over 100 µM, the TGI [8] was over 100 µM and the TGI [9] was over 100 µM. The TGI [10] was over 100 µM, the TGI [11] was over 100 µM and the TGI [12] was over 100 µM. The TGI [13] was over 100 µM, the TGI [14] was over 100 µM and the TGI [15] was over 100 µM. For the same molecule, the TGI [16] was over 100 µM, the TGI [17] was over 100 µM and the TGI [18] was over 100 µM. It also gave a TGI [19] of over 100 µM, a TGI [20] of over 100 µM and a TGI [21] of over 100 µM. It also gave a TGI [22] of over 100 µM, a TGI [23] of over 100 µM and a TGI [24] of over 100 µM. For the same molecule, the TGI [25] was over 100 µM, the TGI [26] was over 100 µM and the TGI [27] was over 100 µM. For the same molecule, the TGI [28] was over 100 µM, the TGI [29] was over 100 µM and the TGI [30] was over 100 µM. For the same molecule, the TGI [31] was over 100 µM, the TGI [32] was over 100 µM and the TGI [33] was over 100 µM. The TGI [34] was over 100 µM, the TGI [35] was over 100 µM and the TGI [36] was over 100 µM. The TGI [37] was over 100 µM, the TGI [38] was over 100 µM and the TGI [39] was over 100 µM. The TGI [40] was over 100 µM, the TGI [41] was over 100 µM and the TGI [42] was over 100 µM. For the same molecule, the TGI [43] was over 100 µM, the TGI [44] was over 100 µM and the TGI [45] was over 100 µM. The TGI [46] was over 100 µM, the TGI [47] was over 100 µM and the TGI [48] was over 100 µM. The TGI [49] was over 100 µM, the TGI [50] was over 100 µM and the TGI [51] was over 100 µM. It also gave a TGI [52] of over 100 µM, a TGI [53] of over 100 µM and a TGI [54] of over 100 µM. For the same molecule, the TGI [55] was over 100 µM, the TGI [56] was over 100 µM and the TGI [57] was over 100 µM. It also gave a TGI [58] of over 100 µM.
